test system: Tobacco mosaic virus; assay: Antiviral activity against Tobacco mosaic virus after 72 hrs by half-leaf juice rubbing method; type: functional; design: concentration or dose not given beside the values

For `NC(=O)c1nc(-c2nn[nH]c2-c2ccccc2)n(COCCO)n1`, which Activity is on record?
Its Activity is 36%.

How did the Activity turn out when `Cc1ccc(-c2[nH]nnc2-c2nc(C(N)=O)nn2COCCO)cc1` was run?
Its Activity is 28%.

`COc1ccc(-c2[nH]nnc2-c2nc(C(N)=O)nn2COCCO)cc1` was tested. Which Activity did it give?
Its Activity is 39%.

With `CCCCc1ccc(-c2[nH]nnc2-c2nc(C(N)=O)nn2COCCO)cc1` as the molecule, how does the Activity read?
Its Activity is 22%.

With `CCCCCc1ccc(-c2[nH]nnc2-c2nc(C(N)=O)nn2COCCO)cc1` as the molecule, how does the Activity read?
Its Activity is 44%.

Which Activity does the source give for `NC(=O)c1nc(-c2nn[nH]c2-c2ccc(F)cc2)n(COCCO)n1` here?
The Activity was 29%.

`NC(=O)c1nc(-c2nn[nH]c2-c2ccccc2C(F)(F)F)n(COCCO)n1` was tested. Which Activity did it give?
The Activity was 17%.

How did the Activity turn out when `NC(=O)c1nc(-c2nn[nH]c2-c2cccc(C(F)(F)F)c2)n(COCCO)n1` was run?
The Activity was 16%.

With `NC(=O)c1nc(-c2nn[nH]c2-c2ccc(C(F)(F)F)cc2)n(COCCO)n1` as the molecule, how does the Activity read?
The Activity was 30%.

How did the Activity turn out when `NC(=O)c1nc(-c2nn[nH]c2-c2cccs2)n(COCCO)n1` was run?
Its Activity is 14%.

Which Activity does the source give for `CCCCCc1[nH]nnc1-c1nc(C(N)=O)nn1COCCO` here?
The Activity was 34%.

For `NC(=O)c1nc(-c2nn[nH]c2C2=CCCCC2)n(COCCO)n1`, which Activity is on record?
The Activity was 23%.

With `NC(=O)c1ncn([C@@H]2O[C@H](CO)[C@@H](O)[C@H]2O)n1` [RIBAVIRIN] as the molecule, how does the Activity read?
Its Activity is 39%.
